Like-named read-outs stand apart in the source and are kept apart here.
Key:
Experiment in all cases: Kinase Profiler, residual kinase activity
Format in all cases: biochemical
Conditions in all cases: read-out: percentage of the remaining kinase activity
[1] = biological target: T1, IRAK4 (Homo sapiens, UniProt Q9NWZ3)
T1 sequence (Q9NWZ3 1-460): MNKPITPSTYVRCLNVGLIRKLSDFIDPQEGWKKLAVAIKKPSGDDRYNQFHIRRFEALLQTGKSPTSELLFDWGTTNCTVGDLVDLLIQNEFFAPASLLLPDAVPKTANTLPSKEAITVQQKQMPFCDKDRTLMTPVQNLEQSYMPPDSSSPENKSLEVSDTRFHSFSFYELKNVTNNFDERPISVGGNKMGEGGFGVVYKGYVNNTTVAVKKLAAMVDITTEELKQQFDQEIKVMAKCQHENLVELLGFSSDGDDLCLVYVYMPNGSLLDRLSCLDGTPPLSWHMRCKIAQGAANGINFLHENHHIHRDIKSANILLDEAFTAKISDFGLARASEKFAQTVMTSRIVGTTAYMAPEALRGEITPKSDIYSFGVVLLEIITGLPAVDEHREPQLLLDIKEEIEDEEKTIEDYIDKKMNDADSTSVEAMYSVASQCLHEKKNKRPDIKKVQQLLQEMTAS
Source text: (§1) Kinase Profiler services provided by […]. (http://www.reactionbiology.com) were used to analyze the data of the 9 type-S protein kinase inhibitors against the 40 types of protein kinases.

[2] = biological target: T2, INSR (Homo sapiens, UniProt P06213)
T2 construct: purchased Research Biology Corp. (http://www.reactionbiology.com)
T2 sequence (P06213 28-1382): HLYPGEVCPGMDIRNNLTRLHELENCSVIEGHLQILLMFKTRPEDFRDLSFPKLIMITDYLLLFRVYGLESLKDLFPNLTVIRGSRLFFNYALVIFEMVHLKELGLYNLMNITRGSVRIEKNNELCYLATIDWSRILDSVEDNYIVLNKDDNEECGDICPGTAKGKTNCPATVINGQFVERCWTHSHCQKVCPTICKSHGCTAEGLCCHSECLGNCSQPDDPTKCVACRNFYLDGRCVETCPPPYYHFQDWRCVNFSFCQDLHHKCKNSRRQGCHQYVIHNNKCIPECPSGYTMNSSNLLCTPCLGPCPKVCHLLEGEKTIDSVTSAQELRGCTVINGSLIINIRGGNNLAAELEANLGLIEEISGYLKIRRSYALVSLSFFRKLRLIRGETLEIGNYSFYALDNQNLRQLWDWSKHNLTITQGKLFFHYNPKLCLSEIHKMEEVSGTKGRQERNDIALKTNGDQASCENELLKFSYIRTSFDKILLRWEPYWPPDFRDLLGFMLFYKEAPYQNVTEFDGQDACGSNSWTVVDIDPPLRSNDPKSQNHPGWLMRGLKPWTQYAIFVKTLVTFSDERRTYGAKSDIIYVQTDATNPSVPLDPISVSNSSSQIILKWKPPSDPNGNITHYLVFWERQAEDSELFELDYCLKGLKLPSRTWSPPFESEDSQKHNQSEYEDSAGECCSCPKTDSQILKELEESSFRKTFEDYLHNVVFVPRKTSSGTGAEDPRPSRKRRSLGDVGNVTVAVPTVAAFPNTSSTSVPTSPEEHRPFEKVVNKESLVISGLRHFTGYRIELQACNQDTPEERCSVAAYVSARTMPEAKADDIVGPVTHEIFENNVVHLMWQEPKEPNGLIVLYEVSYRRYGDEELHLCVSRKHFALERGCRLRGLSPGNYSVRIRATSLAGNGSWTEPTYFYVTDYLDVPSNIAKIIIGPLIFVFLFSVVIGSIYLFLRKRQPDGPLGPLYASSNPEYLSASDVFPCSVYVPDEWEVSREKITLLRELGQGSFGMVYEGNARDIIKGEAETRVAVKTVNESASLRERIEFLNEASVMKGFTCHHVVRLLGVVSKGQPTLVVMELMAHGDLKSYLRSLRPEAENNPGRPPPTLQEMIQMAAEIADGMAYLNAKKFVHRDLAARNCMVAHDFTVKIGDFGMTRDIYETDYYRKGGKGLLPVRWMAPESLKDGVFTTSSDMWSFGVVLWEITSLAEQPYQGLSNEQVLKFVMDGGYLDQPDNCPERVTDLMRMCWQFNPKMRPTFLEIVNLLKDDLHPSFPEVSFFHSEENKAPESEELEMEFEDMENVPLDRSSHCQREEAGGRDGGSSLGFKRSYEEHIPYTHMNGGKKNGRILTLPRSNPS
Source text: as §1

[3] = biological target: T3, MERTK (Homo sapiens, UniProt Q12866)
T3 sequence (Q12866 21-999): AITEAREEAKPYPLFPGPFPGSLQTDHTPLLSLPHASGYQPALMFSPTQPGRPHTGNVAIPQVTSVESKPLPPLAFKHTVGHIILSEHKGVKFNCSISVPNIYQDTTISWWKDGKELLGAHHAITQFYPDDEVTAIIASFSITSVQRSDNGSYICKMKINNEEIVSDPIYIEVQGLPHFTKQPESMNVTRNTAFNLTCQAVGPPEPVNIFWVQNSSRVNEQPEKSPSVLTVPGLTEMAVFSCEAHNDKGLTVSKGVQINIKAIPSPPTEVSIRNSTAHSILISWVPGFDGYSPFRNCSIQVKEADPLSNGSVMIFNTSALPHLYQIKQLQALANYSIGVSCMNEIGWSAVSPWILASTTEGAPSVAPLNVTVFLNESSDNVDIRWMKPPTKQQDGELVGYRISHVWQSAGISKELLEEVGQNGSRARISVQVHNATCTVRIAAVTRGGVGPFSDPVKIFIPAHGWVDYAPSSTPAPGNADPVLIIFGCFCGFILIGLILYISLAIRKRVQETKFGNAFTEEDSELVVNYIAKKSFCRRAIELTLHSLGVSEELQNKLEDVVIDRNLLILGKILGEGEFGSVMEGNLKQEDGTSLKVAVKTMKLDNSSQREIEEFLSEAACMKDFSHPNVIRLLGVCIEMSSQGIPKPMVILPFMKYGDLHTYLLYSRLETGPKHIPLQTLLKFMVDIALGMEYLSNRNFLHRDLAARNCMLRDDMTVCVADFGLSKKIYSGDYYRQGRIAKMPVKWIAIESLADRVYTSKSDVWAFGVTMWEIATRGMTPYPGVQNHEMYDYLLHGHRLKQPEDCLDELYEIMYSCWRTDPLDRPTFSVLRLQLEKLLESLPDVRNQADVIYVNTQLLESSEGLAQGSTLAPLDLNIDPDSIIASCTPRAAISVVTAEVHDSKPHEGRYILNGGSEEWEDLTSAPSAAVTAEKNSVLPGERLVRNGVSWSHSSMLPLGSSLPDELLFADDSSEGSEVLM
Source text: as §1

[4] = biological target: T4, GSG2 (Homo sapiens, UniProt Q8TF76)
T4 sequence (Q8TF76 1-798): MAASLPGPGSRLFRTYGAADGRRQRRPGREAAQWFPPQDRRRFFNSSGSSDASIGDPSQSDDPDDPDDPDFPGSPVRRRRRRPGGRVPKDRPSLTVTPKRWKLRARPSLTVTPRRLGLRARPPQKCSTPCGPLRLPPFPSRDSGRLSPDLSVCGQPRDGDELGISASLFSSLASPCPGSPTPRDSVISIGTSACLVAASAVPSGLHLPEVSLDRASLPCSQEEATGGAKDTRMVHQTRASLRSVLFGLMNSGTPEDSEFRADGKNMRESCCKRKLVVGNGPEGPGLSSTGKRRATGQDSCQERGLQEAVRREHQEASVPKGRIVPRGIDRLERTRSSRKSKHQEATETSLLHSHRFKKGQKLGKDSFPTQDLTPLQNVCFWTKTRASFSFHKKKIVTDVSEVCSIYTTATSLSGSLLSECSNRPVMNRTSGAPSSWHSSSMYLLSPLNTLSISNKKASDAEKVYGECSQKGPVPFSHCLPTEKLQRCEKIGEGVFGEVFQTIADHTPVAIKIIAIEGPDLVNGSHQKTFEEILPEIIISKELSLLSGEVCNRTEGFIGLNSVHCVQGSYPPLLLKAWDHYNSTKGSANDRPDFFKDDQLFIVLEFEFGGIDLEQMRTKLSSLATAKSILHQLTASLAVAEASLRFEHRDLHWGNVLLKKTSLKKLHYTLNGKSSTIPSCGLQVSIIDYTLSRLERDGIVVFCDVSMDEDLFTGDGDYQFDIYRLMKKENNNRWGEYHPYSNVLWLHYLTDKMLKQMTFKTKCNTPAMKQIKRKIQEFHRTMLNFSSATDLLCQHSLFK
Source text: as §1

[5] = biological target: T5, PRKACA (Homo sapiens, UniProt P17612)
T5 construct: purchased Research Biology Corp. (http://www.reactionbiology.com)
Source text: as §1

[6] = biological target: DYRK1A (Homo sapiens, UniProt Q13627)
Source text: as §1

[7] = biological target: RET (Homo sapiens, UniProt P07949)
RET, sequence (P07949 29-1114): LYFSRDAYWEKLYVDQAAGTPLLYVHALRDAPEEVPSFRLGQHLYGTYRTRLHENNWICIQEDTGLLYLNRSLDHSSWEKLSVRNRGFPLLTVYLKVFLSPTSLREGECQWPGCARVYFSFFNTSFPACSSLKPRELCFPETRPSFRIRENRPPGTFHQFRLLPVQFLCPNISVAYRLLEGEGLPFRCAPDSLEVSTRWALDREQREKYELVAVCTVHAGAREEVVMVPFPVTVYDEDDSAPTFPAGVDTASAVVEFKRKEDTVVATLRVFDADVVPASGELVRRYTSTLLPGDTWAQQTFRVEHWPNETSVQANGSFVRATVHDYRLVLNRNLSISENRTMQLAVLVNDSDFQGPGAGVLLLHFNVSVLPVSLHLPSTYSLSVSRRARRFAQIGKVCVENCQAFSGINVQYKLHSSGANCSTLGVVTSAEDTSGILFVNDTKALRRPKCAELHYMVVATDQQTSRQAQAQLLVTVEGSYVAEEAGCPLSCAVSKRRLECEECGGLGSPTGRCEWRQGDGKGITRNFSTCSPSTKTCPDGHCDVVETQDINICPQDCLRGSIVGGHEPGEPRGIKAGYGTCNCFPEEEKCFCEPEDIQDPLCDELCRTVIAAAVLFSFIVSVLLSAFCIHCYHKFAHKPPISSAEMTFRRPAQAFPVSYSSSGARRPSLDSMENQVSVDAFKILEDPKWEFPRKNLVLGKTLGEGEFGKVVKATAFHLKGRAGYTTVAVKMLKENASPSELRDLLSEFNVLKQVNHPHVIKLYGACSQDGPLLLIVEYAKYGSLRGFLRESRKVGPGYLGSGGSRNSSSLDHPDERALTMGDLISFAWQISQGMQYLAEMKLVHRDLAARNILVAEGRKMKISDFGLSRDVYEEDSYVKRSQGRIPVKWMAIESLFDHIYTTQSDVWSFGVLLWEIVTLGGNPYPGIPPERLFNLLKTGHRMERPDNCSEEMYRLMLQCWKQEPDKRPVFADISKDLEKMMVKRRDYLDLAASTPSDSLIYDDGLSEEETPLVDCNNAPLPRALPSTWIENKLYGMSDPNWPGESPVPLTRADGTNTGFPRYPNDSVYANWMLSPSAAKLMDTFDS
Source text: as §1

| remaining activity at 0.5 µM ([1]; IRAK4, inhibitor at 500 nM) [%] | remaining activity at 0.5 µM ([2]; INSR, inhibitor at 500 nM) [%] | remaining activity at 0.5 µM ([3]; MERTK, inhibitor at 500 nM) [%] | remaining activity at 0.5 µM ([4]; GSG2, inhibitor at 500 nM) [%] | remaining activity at 0.5 µM ([5]; PRKACA, inhibitor at 500 nM) [%] | remaining activity at 0.5 µM ([6]; DYRK1A, inhibitor at 500 nM) [%] | remaining activity at 0.5 µM ([7]; RET, inhibitor at 500 nM) [%] | Structure (SMILES) | remaining activity at 0.5 µM [1] [%] | remaining activity at 0.5 µM [2] [%] | remaining activity at 0.5 µM [3] [%] | remaining activity at 0.5 µM [4] [%] | remaining activity at 0.5 µM [5] [%] | remaining activity at 0.5 µM [6] [%] | remaining activity at 0.5 µM [7] [%] |
| --- | --- | --- | --- | --- | --- | --- | --- | --- | --- | --- | --- | --- | --- | --- |
| 33.4 | 23.1 | 26.7 | 69.9 | 13.9 | 0.4 | 6 | COC1C(N(C)C(=O)C(N)Cc2c[nH]cn2)CC2OC1(C)n1c3ccccc3c3c4c(c5c6ccccc6n2c5c31)C(=O)NC4 (stereo not drawn) [Compound 1] | – | – | – | – | – | – | – |
| 101 | 97.9 | 96.8 | 110 | 81.1 | 88.6 | 101 | COC1C(N(C)C(=O)C(N)Cc2cn(C(=O)OC(C)(C)C)c3ccccc23)CC2OC1(C)n1c3ccccc3c3c4c(c5c6ccccc6n2c5c31)C(=O)NC4 (stereo not drawn) [Compound 2] | – | – | – | – | – | – | – |
| 87.4 | 84.8 | 88.1 | 102 | 38.3 | 17.8 | 63 | COC1C(N(C)C(=O)C(N)Cc2ccc(OC(C)(C)C)cc2)CC2OC1(C)n1c3ccccc3c3c4c(c5c6ccccc6n2c5c31)C(=O)NC4 (stereo not drawn) [Compound 4] | – | – | – | – | – | – | – |
| 85.9 | 69.1 | 69.2 | 89.5 | 32.6 | 0.6 | 21.3 | COC1C(N(C)C(=O)C(N)Cc2ccc(O)cc2)CC2OC1(C)n1c3ccccc3c3c4c(c5c6ccccc6n2c5c31)C(=O)NC4 (stereo not drawn) [Compound 5] | – | – | – | – | – | – | – |
| 63.5 | 72.3 | 85.2 | 88 | 40.8 | 13.8 | 34.2 | COC1C(N(C)C(=O)C(N)CCC(=O)OC(C)(C)C)CC2OC1(C)n1c3ccccc3c3c4c(c5c6ccccc6n2c5c31)C(=O)NC4 (stereo not drawn) [Compound 6] | – | – | – | – | – | – | – |
| 46.8 | 32.8 | 40 | 69.9 | 18.6 | 0.6 | 1.6 | COC1C(N(C)C(=O)C(N)CCC(=O)O)CC2OC1(C)n1c3ccccc3c3c4c(c5c6ccccc6n2c5c31)C(=O)NC4 (stereo not drawn) [Compound 7] | – | – | – | – | – | – | – |
| – | – | – | – | – | – | – | COC1C(N(C)CCOc2cccc([N+](=O)[O-])c2)CC2OC1(C)n1c3ccccc3c3c4c(c5c6ccccc6n2c5c31)C(=O)NC4 (stereo not drawn) [Compound 8] | 27.9 | 83.1 | 63.1 | 89.8 | 26.4 | 25.3 | 16.2 |
| 26.6 | 79.1 | 52.3 | 87.8 | 24.6 | 18.5 | 14.8 | COC1C(N(C)Cc2ccc(-c3ccccc3)cc2)CC2OC1(C)n1c3ccccc3c3c4c(c5c6ccccc6n2c5c31)C(=O)NC4 (stereo not drawn) [Compound 9] | – | – | – | – | – | – | – |

| Structure (SMILES) | remaining activity at 0.5 µM ([1]; IRAK4, inhibitor at 500 nM) [%] | remaining activity at 0.5 µM ([2]; INSR, inhibitor at 500 nM) [%] | remaining activity at 0.5 µM ([3]; MERTK, inhibitor at 500 nM) [%] | remaining activity at 0.5 µM ([4]; GSG2, inhibitor at 500 nM) [%] | remaining activity at 0.5 µM ([5]; PRKACA, inhibitor at 500 nM) [%] | remaining activity at 0.5 µM ([6]; DYRK1A, inhibitor at 500 nM) [%] | remaining activity at 0.5 µM ([7]; RET, inhibitor at 500 nM) [%] | remaining activity at 0.5 µM [1] [%] | remaining activity at 0.5 µM [2] [%] | remaining activity at 0.5 µM [3] [%] | remaining activity at 0.5 µM [4] [%] | remaining activity at 0.5 µM [5] [%] | remaining activity at 0.5 µM [6] [%] | remaining activity at 0.5 µM [7] [%] |
| --- | --- | --- | --- | --- | --- | --- | --- | --- | --- | --- | --- | --- | --- | --- |
| CN[C@@H]1C[C@H]2O[C@@](C)([C@@H]1OC)n1c3ccccc3c3c4c(c5c6ccccc6n2c5c31)C(=O)NC4 [STU, staurosporine, reference compound] | – | – | – | 9 | – | – | – | 1.6 | 16.2 | 1.1 | – | – | – | – |

— patent publication US9738660B2, “Selective inhibitors for protein kinases and pharmaceutical composition and use thereof” (National Chiao Tung University, priority 2014, dated 2017)
